In patent US12522635B2, “Amyloid peptide variants” (Loyola Marymount University, priority 2019, dated 2026):
“Also recorded” adds a separate entry of the source. Where a SMILES comes first, the peptide text is derived from it. Bridges are numbered along the chain shown (N, C = ends).

Tests used:
human IAPP (hIAPP) [1] = molecular target: T1, human IAPP (hIAPP) (Homo sapiens, UniProt P10997); assay: Thioflavin T binding assay of hIAPP aggregation when mixed with IAPP peptides; format: biochemical; conditions: peptide mixed with hIAPP; no single assay (thioflavin T and AFM)
T1 construct: This 37 amino acid polypeptide is co-secreted from pancreatic β-islet cells with insulin
T1 sequence (P10997 34-70 limits assumed): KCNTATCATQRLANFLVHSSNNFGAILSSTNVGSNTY
Procedure, shortened: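 37 μM hIAPP plus 75 μM animal IAPP (2:1) in 20 mM Tris pH 7.4, shaken 200 rpm at 37 °C for 40 min. Aliquots were mixed into 50.0 μM thioflavin T and emission read at 488 nm, with fibrils checked by AFM. Significance vs hIAPP alone was determined by t-test.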

human IAPP (hIAPP) [2] = molecular target: T1, human IAPP (hIAPP); assay: Atomic force microscopy (AFM) of hIAPP fibril formation when mixed with IAPP peptides; format: biochemical; conditions: for inhibition of hIAPP fibril formation, AFM: 37 μM hIAPP and 75 μM peptide, 37° C. with shaking for 40 minutes
Procedure, shortened: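 hIAPP (37–40 μM) alone or mixed with other IAPP peptides (equimolar or about 2:1 peptide:hIAPP) was shaken at 37° C for 30–40 minutes. Samples deposited on mica, washed with water, dried and imaged by AFM in A/C mode; scans […], raw unflattened data.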

RIN-m cells = assay: MTT viability assay, peptide alone or mixed with hIAPP; format: cell-based; conditions: for rescue / protection of cells from hIAPP toxicity (words): hIAPP mixed with peptide 1:1, MTT assay
Procedure, shortened: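 RIN-m cells were exposed to hIAPP alone, each animal IAPP peptide alone, or hIAPP mixed with an animal IAPP for 46 h at 37° C in RPMI-1640 with 10% FBS. Viability by MTT reduction (2 h), formazan solubilized in SDS/DMF and read at 570 nm, relative to untreated cells as 100%.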

[3] = AFM of peptide alone (self-aggregation / fibril formation); format: physicochemical; conditions: for aggregation propensity relative to comparator: comparison of pramlintide with the IAPP peptides
Method: Samples labeled with hIAPP contained 40 μM hIAPP. The sample with pramlintide and hIAPP contained a 2:1 molar mixture (80 μM Pramlintide mixed with 40 μM hIAPP). The samples with raccoon IAPP and Pramlintide alone contained 40 μM of the indicated peptides. Each sample was incubated for 40 minutes at 37° C. with shaking; conditions known to promote hIAPP amyloid formation. All scans show raw data with no flattening and are […].
Samples of hIAPP with or without animal IAPP were prepared as described in Example 1 and were then incubated with shaking at 37° C. for 40 minutes. After this incubation, 17 μL of each sample was deposited onto freshly cleaved mica. Samples were incubated for 5 minutes at room temperature before washing with 200 μL sterile water. After drying, the samples were scanned using an MFP-3D atomic force microscope (Asylum Research) set on A/C mode and a 240 m silicon cantilever (Olympus).
Many of the animal IAPP variants are known to likewise form fibrils and yield amyloid-plaques when scanned via AFM. […] This is in spite of the fact that all of these IAPP peptides (except polar bear IAPP) are known to aggregate and form fibrils themselves under these or similar conditions

human IAPP (hIAPP) [4] = molecular target: T1, human IAPP (hIAPP); assay: hIAPP aggregation in the presence of human insulin; format: biochemical
[5] = following injection; Wijesekara et al. 2015; cited from earlier work
human IAPP = molecular target: T2, human IAPP (Homo sapiens, UniProt P10997); conditions: cited from earlier work
T2 sequence (P10997 34-70 limits assumed): T1 sequence (P10997 34-70 limits assumed)

| Compound | inhibition of hIAPP aggregation (summary statement) (human IAPP (hIAPP) [1]) | inhibition of hIAPP fibril formation, AFM (human IAPP (hIAPP) [2]) | rescue / protection of cells from hIAPP toxicity (words) (RIN-m cells) | aggregation propensity relative to comparator [3] | prevention of hIAPP aggregation in the presence of human insulin (human IAPP (hIAPP) [4]) | prevention of hIAPP aggregation, AFM (FIG. 5) (human IAPP (hIAPP) [2]; 40 μM hIAPP, pramlintide 80 μM (2:1), 40 minutes at 37° C. with shaking) | toxicity of peptide to cells (RIN-m cells; peptide alone, MTT assay, pancreatic (RIN-m) cells) | aggregation / fibril formation of peptide alone, AFM ([3]; peptide alone, incubated 40 minutes at 37° C. with shaking) | fasting blood glucose levels and glucose tolerance [5] | decrease of cytotoxicity (literature) (human IAPP) | inhibition of amyloid fibril formation (literature) (human IAPP) |
| --- | --- | --- | --- | --- | --- | --- | --- | --- | --- | --- | --- |
| CC[C@H](C)[C@H](NC(=O)[C@H](C)NC(=O)CNC(=O)[C@@H](NC(=O)[C@H](CC(N)=O)NC(=O)[C@H](CO)NC(=O)[C@H](CO)NC(=O)[C@H](CO)NC(=O)[C@H](CCCNC(=N)N)NC(=O)[C@@H](NC(=O)[C@H](CC(C)C)NC(=O)[C@H](Cc1ccccc1)NC(=O)[C@H](CC(=O)O)NC(=O)[C@H](C)NC(=O)[C@H](CC(C)C)NC(=O)[C@H](CCCNC(=N)N)NC(=O)[C@H](CCC(N)=O)NC(=O)[C@@H](NC(=O)[C@@H](NC(=O)[C@@H]1CSSC[C@H](NC(=O)[C@@H](N)CCCCN)C(=O)N[C@@H](CC(N)=O)C(=O)N[C@@H]([C@@H](C)O)C(=O)N[C@@H](C)C(=O)N[C@@H]([C@@H](C)O)C(=O)N1)C(C)C)[C@@H](C)O)C(C)C)[C@@H](C)CC)C(=O)N[C@@H](Cc1ccc(O)cc1)C(=O)N[C@@H](CO)C(=O)N1CCC[C@H]1C(=O)N[C@H](C(=O)N[C@@H](CC(N)=O)C(=O)N[C@H](C(=O)NCC(=O)N[C@@H](CO)C(=O)N[C@@H](CC(N)=O)C(=O)N[C@H](C(=O)N[C@@H](Cc1ccc(O)cc1)C(N)=O)[C@@H](C)O)C(C)C)[C@@H](C)O [chicken IAPP] (H-KCNTATCVTQRLADFLVRSSSNIGAIYSPTNVGSNTY-NH2; disulfide 2-7 (inferred); N-terminus and C-terminus assumed) | able to inhibit such aggregation; also recorded: inhibit aggregate formation by hIAPP | significant ability to prevent fiber formation | significant increase in cell viability; also recorded: rescue living cells from the toxic effects of hIAPP | less aggregation-prone than Pramlintide | prevent hIAPP aggregation in the presence of human insulin |  |  |  |  |  |  |
| CC[C@H](C)[C@H](NC(=O)[C@H](C)NC(=O)CNC(=O)[C@H](CC(C)C)NC(=O)[C@H](CC(N)=O)NC(=O)[C@H](CC(N)=O)NC(=O)[C@H](CO)NC(=O)[C@H](CO)NC(=O)[C@H](CCCNC(=N)N)NC(=O)[C@H](CC(C)C)NC(=O)[C@H](CC(C)C)NC(=O)[C@H](Cc1ccccc1)NC(=O)[C@H](CC(N)=O)NC(=O)[C@H](C)NC(=O)[C@H](CC(C)C)NC(=O)[C@H](CCCNC(=N)N)NC(=O)[C@H](CCC(N)=O)NC(=O)[C@@H](NC(=O)[C@@H](NC(=O)[C@@H]1CSSC[C@H](NC(=O)[C@@H](N)CCCCN)C(=O)N[C@@H](CC(N)=O)C(=O)N[C@@H]([C@@H](C)O)C(=O)N[C@@H](C)C(=O)N[C@@H]([C@@H](C)O)C(=O)N1)C(C)C)[C@@H](C)O)C(=O)N[C@@H](CC(C)C)C(=O)N[C@@H](CO)C(=O)N1CCC[C@H]1C(=O)N[C@H](C(=O)N[C@@H](CC(N)=O)C(=O)N[C@H](C(=O)NCC(=O)N[C@@H](CO)C(=O)N[C@@H](CC(N)=O)C(=O)N[C@H](C(=O)N[C@@H](Cc1ccc(O)cc1)C(N)=O)[C@@H](C)O)C(C)C)[C@@H](C)O [raccoon IAPP] (H-KCNTATCVTQRLANFLLRSSNNLGAILSPTNVGSNTY-NH2; disulfide 2-7 (inferred); N-terminus and C-terminus assumed) | able to inhibit such aggregation; also recorded: inhibit aggregate formation by hIAPP | significant ability to prevent fiber formation | protected the RIN-m cells from the toxic effects of hIAPP; also recorded: significant increase in cell viability; also recorded: rescue living cells from the toxic effects of hIAPP | less aggregation-prone than Pramlintide | prevent hIAPP aggregation in the presence of human insulin | prevented hIAPP from aggregating | some cellular toxicity | did not aggregate |  |  |  |
| ANFLVH (Islet amyloid polypeptide; UniProt P10997 46-51, looked up, fragment) [peptide derived from human IAPP, from Wijesekara et al. 2015] |  |  |  |  |  |  |  |  | improve fasting blood glucose levels and glucose tolerance | decrease cytotoxicity | inhibit amyloid fibril formation |
